Test results taken from US20260174778A1, “SULFONAMIDE COMPOUND, AND PREPARATION METHOD THEREFOR AND USE THEREOF” (SHANGHAI HENLIUS BIOTECH, INC., priority 2023, published 2026).
Read-outs that look alike come from different tables or passages of the source.

Tests used:
KAT6A = target: T1, KAT6A (Homo sapiens, UniProt Q92794); assay: Inhibition of human KAT enzymes, radioisotope method: KAT6A; type: biochemical; details: KAT6A (488-778)
T1 construct: purchased ACTIVE MOTIF 81223
Text: (§1) Test Example 2: Selective Inhibitory Effects of Test Compounds on Human KAT6 Enzymes (Radioisotope Method)
(§2) • 1. KAT6A (ACTIVE MOTIF, Cat. No. 81223) • 2. KAT5 (BPS, Cat. No. 79422) • 3. KAT7 (ACTIVE MOTIF, Cat. No. 31889) • 4. KAT6B (ACTIVE MOTIF, Cat. No. 81224) • 5. Acetyl coenzyme A, [Acetyl-^3H, 250 μCi (9.25 MBq](PEIRKIN4 ELMER, Cat. No. NET290250UC) • 6. Acetyl coenzyme A (CAYMVAN, Cat. No. 16160) • 7. 384-well Flashplate (Perkin Elmer, Cat. No. SMP410A001PK) • 8. Garcinol (MCE, Cat. No. HY-107569) • 9. Automatic microplate pipetting system (Precision, PRC384U, BioTek) • 10. Ultrasonic nanoliter liquid handling system (Echo 650 Liquid Handler, Echo 650, Labcyte) • 11. Centrifuge (Avanti J-15R, Beckman Coulter) • 12. Liquid scintillation counter (Microplate Counter, Microbeta2, Perkin Elmer)
(§3) • 1. For KAT6A and KAT7, a 1× assay buffer was prepared as follows: 10 mM Tris-HCl pH 8.0, 0.01% Tween-20, and 1 mM DTT; for KAT6B and KAT5, a 1× assay buffer was prepared as follows: 50 mM Tris-HCl pH 8.0, 0.05% Tween-20, and 1 mM DTT. • 2. Compound preparation: For KAT6A, KAT6B, and KAT7, the final concentration of the compounds started at 1 μM, followed by a 5-fold serial dilution across a total of 7 concentration gradients; for KAT5, the final concentration of the compounds started at 10 μM, followed by a 5-fold serial dilution across a total of 7 concentration gradients. • 3. Substrate reaction solution preparation: The mixed substrates of H4 peptide and [3H]acetyl coenzyme A at final concentrations were prepared using the respective 1× assay buffers, as shown in Table 4.
(§4) • 1. The enzyme solution was transferred to 384-well reaction plates at 10 μL/well. For each negative control well, 10 μL of the 1× assay buffer was transferred. The plates were then centrifuged at 1000 RPM for 1 min and incubated at room temperature for 15 min. • 2. The substrate reaction solution was added at 10 μL/well, and the plates were centrifuged at 1000 RPM for 1 min to start the reaction. • 3. The samples for KAT6A, KAT6B, KAT7, KAT8, and KAT5 were then incubated at room temperature for 60 min, 120 min, 45 min, 60 min, and 120 min, respectively. • 4. Stop solution preparation: A stop solution was prepared by diluting 50 µM cold Ac-CoA in 1× buffer. • 5. The stop solution was added at 10 μL/well, and the plates were centrifuged at […] for 1 min to stop the reaction. • 6. The mixtures in the reaction plates were transferred at 25 μL/well to new plates (Streptavidin FlashPlate HTS PLUS, High Capacity, 384-well). • 7. The plates were incubated at room temperature for at least 60 min and then • 8. read using MicroBeta2.
(§5) Raw data were obtained in EXCEL, and the inhibition rates were calculated:
(§6) [formula] [formula] • Max signal: reaction signal from enzyme and substrate; • Sample signal: signal from sample; • Min signal: signal from substrate only (negative control).
(§7) The inhibition rate data were imported into XLFit Excel, and IC50 values were obtained using formula (2):
(§8) [formula] [formula] • Top: value of the top plateau of the fitted regression curve; • Bottom: value of the bottom plateau of the fitted regression curve; • HillSlope: slope of the fitted regression curve.
(§9) The IC50 value was substituted into formula (3) to obtain the enzymatic activity inhibition constant Ki:
(§10) [formula] • [S]: substrate concentration; Km: Michaelis constant.

KAT6B = target: T2, KAT6B (Homo sapiens, UniProt Q8WYB5); assay: Inhibition of human KAT enzymes, radioisotope method: KAT6B; type: biochemical; details: KAT6B (718-1008)
T2 construct: purchased ACTIVE MOTIF 81224
T2 sequence (Q8WYB5 whole entry): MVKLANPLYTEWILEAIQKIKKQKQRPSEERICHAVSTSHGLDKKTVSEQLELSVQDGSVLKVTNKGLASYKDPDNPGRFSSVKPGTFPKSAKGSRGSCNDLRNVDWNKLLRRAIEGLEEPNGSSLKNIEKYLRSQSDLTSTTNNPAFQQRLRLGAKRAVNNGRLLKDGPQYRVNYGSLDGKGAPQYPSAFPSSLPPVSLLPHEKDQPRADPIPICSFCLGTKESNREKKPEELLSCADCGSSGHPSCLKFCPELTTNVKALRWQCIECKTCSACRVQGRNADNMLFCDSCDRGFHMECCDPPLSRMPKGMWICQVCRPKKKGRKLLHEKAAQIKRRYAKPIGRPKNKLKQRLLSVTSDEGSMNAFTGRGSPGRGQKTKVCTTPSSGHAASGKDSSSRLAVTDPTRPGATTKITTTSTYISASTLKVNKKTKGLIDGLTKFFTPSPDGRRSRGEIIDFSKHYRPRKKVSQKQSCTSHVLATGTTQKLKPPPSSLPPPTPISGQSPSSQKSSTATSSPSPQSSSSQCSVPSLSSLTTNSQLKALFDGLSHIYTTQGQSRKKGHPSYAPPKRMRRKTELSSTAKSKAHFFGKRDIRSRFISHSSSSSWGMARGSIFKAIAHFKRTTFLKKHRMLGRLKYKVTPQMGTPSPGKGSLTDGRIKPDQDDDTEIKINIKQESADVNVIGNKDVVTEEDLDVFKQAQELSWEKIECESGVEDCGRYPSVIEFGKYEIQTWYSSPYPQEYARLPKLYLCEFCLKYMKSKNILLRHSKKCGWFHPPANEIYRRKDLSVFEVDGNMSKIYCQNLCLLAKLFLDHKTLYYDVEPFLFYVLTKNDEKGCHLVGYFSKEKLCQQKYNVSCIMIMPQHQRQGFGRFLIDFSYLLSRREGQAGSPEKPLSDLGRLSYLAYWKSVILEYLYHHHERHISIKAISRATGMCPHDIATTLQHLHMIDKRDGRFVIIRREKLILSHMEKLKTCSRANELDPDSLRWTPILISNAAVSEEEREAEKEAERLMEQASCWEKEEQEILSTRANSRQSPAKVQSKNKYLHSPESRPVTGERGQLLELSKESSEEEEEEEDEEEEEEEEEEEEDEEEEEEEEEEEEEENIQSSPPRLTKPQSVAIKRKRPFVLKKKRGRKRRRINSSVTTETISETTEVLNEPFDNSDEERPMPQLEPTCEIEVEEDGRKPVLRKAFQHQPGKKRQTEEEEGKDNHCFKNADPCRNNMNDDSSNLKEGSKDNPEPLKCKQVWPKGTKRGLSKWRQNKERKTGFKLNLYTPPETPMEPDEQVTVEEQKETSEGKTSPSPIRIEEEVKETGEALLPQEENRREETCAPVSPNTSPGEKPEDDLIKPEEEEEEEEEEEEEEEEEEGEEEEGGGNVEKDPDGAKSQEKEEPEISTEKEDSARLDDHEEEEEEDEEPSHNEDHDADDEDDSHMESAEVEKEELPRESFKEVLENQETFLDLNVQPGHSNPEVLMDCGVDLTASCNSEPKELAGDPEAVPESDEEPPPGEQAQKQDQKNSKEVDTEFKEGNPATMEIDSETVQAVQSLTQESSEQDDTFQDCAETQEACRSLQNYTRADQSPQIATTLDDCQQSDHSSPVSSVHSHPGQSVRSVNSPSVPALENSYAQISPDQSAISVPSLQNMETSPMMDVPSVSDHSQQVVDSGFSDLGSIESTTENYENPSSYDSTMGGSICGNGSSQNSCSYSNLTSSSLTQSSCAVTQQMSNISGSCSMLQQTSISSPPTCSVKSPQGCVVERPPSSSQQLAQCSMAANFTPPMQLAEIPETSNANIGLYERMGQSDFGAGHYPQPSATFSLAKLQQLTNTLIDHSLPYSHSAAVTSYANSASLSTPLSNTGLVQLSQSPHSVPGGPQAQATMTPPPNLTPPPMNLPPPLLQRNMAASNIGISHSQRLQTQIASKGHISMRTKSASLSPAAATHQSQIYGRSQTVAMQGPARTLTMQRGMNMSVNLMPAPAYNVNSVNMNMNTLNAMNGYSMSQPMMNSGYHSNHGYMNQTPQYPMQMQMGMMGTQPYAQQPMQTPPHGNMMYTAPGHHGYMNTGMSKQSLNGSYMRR
Text: as §1, §2, §3, §4, §5, §6, §7, §8, §9, §10

KAT5 = target: T3, KAT5 (Homo sapiens, UniProt Q92993); assay: Inhibition of human KAT enzymes, radioisotope method: KAT5; type: biochemical; details: for Ki: KAT5 (full-length), radioisotope method; for KAT5/ KAT6A / KAT5/ KAT6B: selectivity, ratio of Ki
T3 construct: purchased BPS 79422
T3 sequence (Q92993 whole entry): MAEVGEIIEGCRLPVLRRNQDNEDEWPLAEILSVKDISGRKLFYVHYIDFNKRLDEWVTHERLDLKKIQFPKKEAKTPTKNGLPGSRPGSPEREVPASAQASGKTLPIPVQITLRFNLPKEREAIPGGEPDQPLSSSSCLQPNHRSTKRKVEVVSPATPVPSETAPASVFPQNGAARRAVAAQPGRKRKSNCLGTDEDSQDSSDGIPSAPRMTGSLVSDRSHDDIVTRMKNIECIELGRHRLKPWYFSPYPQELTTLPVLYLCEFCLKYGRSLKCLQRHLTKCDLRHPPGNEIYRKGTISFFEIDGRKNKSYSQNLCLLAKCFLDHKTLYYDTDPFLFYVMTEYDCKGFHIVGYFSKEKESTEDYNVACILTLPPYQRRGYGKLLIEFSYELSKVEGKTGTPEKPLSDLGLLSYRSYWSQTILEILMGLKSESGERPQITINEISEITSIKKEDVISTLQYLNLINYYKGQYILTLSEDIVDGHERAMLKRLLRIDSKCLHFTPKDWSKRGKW
Text: as §1, §2, §3, §4, §5, §6, §7, §8, §9, §10

KAT7 = target: T4, KAT7 (Homo sapiens, UniProt O95251); assay: Inhibition of human KAT enzymes, radioisotope method: KAT7; type: biochemical; details: for Ki: KAT7 (full-length), radioisotope method; for KAT7/ KAT6A / KAT7/ KAT6B: selectivity, ratio of Ki
T4 construct: purchased ACTIVE MOTIF 31889
T4 sequence (O95251 whole entry): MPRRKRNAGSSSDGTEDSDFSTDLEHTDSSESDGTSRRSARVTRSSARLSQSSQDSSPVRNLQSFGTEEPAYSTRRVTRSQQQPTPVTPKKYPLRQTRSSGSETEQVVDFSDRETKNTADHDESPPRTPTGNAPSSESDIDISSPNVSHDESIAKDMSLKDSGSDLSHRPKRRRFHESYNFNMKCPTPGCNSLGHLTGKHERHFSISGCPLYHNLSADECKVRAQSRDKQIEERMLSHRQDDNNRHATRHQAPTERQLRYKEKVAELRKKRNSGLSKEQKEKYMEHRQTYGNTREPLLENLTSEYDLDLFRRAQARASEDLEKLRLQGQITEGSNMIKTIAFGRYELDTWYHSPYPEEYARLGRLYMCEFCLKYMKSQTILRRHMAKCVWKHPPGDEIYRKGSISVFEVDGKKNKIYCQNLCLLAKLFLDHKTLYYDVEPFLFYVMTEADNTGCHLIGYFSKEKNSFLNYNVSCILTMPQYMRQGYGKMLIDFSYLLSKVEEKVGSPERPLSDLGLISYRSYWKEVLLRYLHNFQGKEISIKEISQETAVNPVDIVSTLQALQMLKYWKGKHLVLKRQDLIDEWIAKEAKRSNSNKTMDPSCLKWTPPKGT
Text: as §1, §2, §3, §4, §5, §6, §7, §8, §9, §10

[1] = Pharmacokinetics in SD (Sprague Dawley) rats; type: in vivo; details: rat, plasma, female SD rats; for clearance: read-out: CL (clearance rate); for half-life: read-out: T1/2 (half-life) (converted); for Vd: read-out: Vdss (apparent volume of distribution); for bioavailability: read-out: F (bioavailability)
Method: Test Example 3: Determination of Pharmacokinetic Data of Compounds in SD (Sprague Dawley) Rats
The pharmacokinetic characteristics of some of the compounds of the present disclosure were evaluated by a pharmacokinetic experiment in SD rats.
Female SD rats aged 6-8 weeks from Shanghai Jihui Laboratory Animal Care Co., Ltd. were selected. The test animals were fasted overnight before administration, and feeding was resumed 4 h after administration. The compounds were dissolved in 5% DMSO+5% Tween 80+90% normal saline. For a single intravenous administration, the administration dose was 1 mg/kg, and the administration volume was 2 mL/kg. For a single intragastric administration, the administration dose was 2 mg/kg, and the administration volume was 10 mL/kg. Blood was collected at 0.083 h (for intravenous administration only), 0.25 h, 0.5 h, 1 h, 2 h, 4 h, 8 h, and 24 h after administration. At each indicated time point, about 150 μL of blood sample was collected from each rat via the vein and placed into an EDTA-K2 tube. Each sample was centrifuged (2000 g, 4° C., 5 min) within 15 min after sample collection to obtain plasma, which was then stored at −70° C. until analysis. The concentration of the corresponding test compound in the SD rat plasma was determined using UPLC-MS/MS.

Structure (SMILES)	Ki (KAT6A) [nM]	Ki (KAT6B) [nM]	Ki (KAT5) [nM]	KAT5/ KAT6A (KAT5)	KAT5/ KAT6B (KAT5)	Ki (KAT7) [nM]	KAT7/ KAT6A (KAT7)	KAT7/ KAT6B (KAT7)	AUC(0-inf) ([1]; iv, i.v. 1 mg/kg) [ng·h/mL]	clearance ([1]; iv, i.v. 1 mg/kg) [mL/min/kg]	half-life ([1]; iv, i.v. 1 mg/kg) [h]	Vd ([1]; iv, i.v. 1 mg/kg) [L/kg]	AUC(0-inf) ([1]; po, p.o. 2 mg/kg) [ng·h/mL]	bioavailability ([1]; po, p.o. 2 mg/kg) [%]	half-life ([1]; po, p.o. 2 mg/kg) [h]
COc1ccccc1S(=O)(=O)Nc1noc2cc(Cn3cccn3)cc(OC)c12 [PF-8144, reference compound]	0.58	5.18	672	1159	130	85.7	148	17	28300	0.597	3.16	0.143	55500	98	3.79
COc1ccc2c(c1S(=O)(=O)Nc1noc3cc(Cn4cccn4)c(F)c(OC)c13)OCCC2=O [Compound 42, N-(6-((1H-Pyrazol-1-yl)methyl)-5-fluoro-4-methoxybenzo[d]isoxazol-3-yl)-7-methoxy-4-oxochromane-8-sulfonamide]									10200	1.69	3.79	0.261	11300	55	3.31
COc1ccc2c(c1S(=O)(=O)Nc1noc3cc(Cn4cccn4)c(F)c(OC)c13)OCCO2 [Compound 28, N-(6-((1H-Pyrazol-1-yl)methyl)-5-fluoro-4-methoxybenzo[d]isoxazol-3-yl)-6-methoxy-2,3-dihydrobenzo[b][1,4]dioxine-5-sulfonamide]	0.2	0.9	649	3243	721	40.6	203	45	22600	0.761	5.87	0.295	42800	94.7	6.73
COc1ccc2c(c1S(=O)(=O)Nc1noc3cc(Cn4cccn4)c(F)c(OC)c13)OCC=C2 [Compound 101, N-(6-((1H-Pyrazol-1-yl)methyl)-5-fluoro-4-methoxybenzo[d]isoxazol-3-yl)-7-methoxy-2H-chromene-8-sulfonamide]	0.21	0.65	79.6	379	122	7.39	35	11	48100	0.35	8.88	0.237	89100	92.5	9.21
